Source: patent US6784137B2, “6-aryl-4-aminopicolinates and their use as herbicides” (Dow AgroSciences LLC, priority 2001, dated 2004)
Read-outs that look alike come from different tables or passages of the source.

Experiments:
[1] = tested on: Crabgrass(large) (Digitaria sanguinalis); experiment: Preemergence herbicidal activity, soil spray; format: in vivo; settings: Digitaria sanguinalis, pre-emergence, 504 h, Table 5, visual score after 3 weeks, read-out: Pre-emergent % control DIGSA; for pest or weed control at 560 ppm: rate 560 ppm; for pest or weed control at 140 ppm: rate 140 ppm
Source text: (§1) Seeds of the desired test plant species were planted in a soil matrix prepared by mixing a loam soil (43 percent silt, 19 percent clay, and 38 percent sand, with a pH of about 8.1 and an organic matter content of about 1.5 percent) and sand in a 70 to 30 ratio. The soil matrix was contained in plastic pots with a surface area of 113 square centimeters. When required to ensure good germination and healthy plants, a fungicide treatment and/or other chemical or physical treatment was applied. A weighed amount, determined by the highest rate to be tested, of each test compound was placed in a 20 mL glass vial and was dissolved in 4 mL of a 97:3 v/v (volume/volume) mixture of acetone and dimethyl sulfoxide to obtain concentrated stock solutions. […] The stock solutions obtained were diluted with a 99.9:0.1 mixture of water and Tween® 155 surfactant to obtain application solutions of known concentration. The solutions containing the highest concentration to be tested were prepared by diluting 2 mL aliquots of the stock solution with 15 mL of the mixture and lower concentrations were prepared by serial dilution of the stock solution. A 2.5 mL aliquot of each solution of known concentration was sprayed evenly onto the soil surface (113 sq. cm) of each seeded pot using a Cornwall 5.0 mL glass syringe fitted with a TeeJet TN-3 hollow cone nozzle to obtain thorough coverage of the soil in each pot. Control pots were sprayed in the same manner with the aqueous mixture. The treated pots and control pots were placed in a greenhouse maintained with an approximate 15 hr photoperiod and temperatures of about 23-29° C. during the day and 22-28° C. during the night. Nutrients and water were added on a regular basis and supplemental lighting was provided with overhead metal halide 1000-Watt lamps as necessary. The water was added by top-irrigation.

[2] = tested on: Pigweed (redroot) (Amaranthus retroflexus); experiment: Preemergence herbicidal activity, soil spray; format: in vivo; settings: Amaranthus retroflexus, pre-emergence, 504 h, Table 5, visual score after 3 weeks, read-out: Pre-emergent % control AMARE; for pest or weed control at 560 ppm: rate 560 ppm; for pest or weed control at 140 ppm: rate 140 ppm
Source text: as §1

[3] = tested on: Lambsquarter (Chenopodium album); experiment: Preemergence herbicidal activity, soil spray; format: in vivo; settings: Chenopodium album, pre-emergence, 504 h, Table 5, visual score after 3 weeks, read-out: Pre-emergent % control CHEAL; for pest or weed control at 560 ppm: rate 560 ppm, 100 complete kill or no germination; for pest or weed control at 140 ppm: rate 140 ppm
Source text: as §1

[4] = tested on: Giant Foxtail (Setaria faberi); experiment: Preemergence herbicidal activity, soil spray; format: in vivo; settings: Setaria faberi, pre-emergence, 504 h, Table 5, visual score after 3 weeks, read-out: Pre-emergent % control SETFA; for pest or weed control at 560 ppm: rate 560 ppm; for pest or weed control at 140 ppm: rate 140 ppm
Source text: as §1

[5] = tested on: Cocklebur (Xanthium strumarium); experiment: Postemergence herbicidal activity, greenhouse spray; format: in vivo; settings: Xanthium strumarium, post-emergence, 336 h, visual score after 2 weeks, read-out: Post-emergent % control XANST; for pest or weed control at 500 ppm: rate 500 ppm, 0 no injury, 100 complete kill; for pest or weed control at 250 ppm: rate 250 ppm; for pest or weed control at 125 ppm: rate 125 ppm
In short: (§2)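 Postemergence application by compressed-air atomizer ([…]) onto plants at the 1-2 true leaf stage; rates set by serial dilution of acetone:DMSO stock into the spray carrier. Plants were kept in a greenhouse with ~15 hr photoperiod and sub-irrigated.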

[6] = tested on: Yellow nutsedge (Cyperus esculentus); experiment: as above; format: in vivo; settings: Cyperus, post-emergence, 336 h, visual score after 2 weeks, read-out: Post-emergent % control CYPES; for pest or weed control at 500 ppm: rate 500 ppm; for pest or weed control at 250 ppm: rate 250 ppm; for pest or weed control at 125 ppm: rate 125 ppm
In short: as §2

[7] = tested on: Barnyardgrass (Echinochloa crus-galli); experiment: as above; format: in vivo; settings: Echinochloa crus-galli, post-emergence, 336 h, visual score after 2 weeks, read-out: Post-emergent % control ECHCG; for pest or weed control at 500 ppm: rate 500 ppm; for pest or weed control at 250 ppm: rate 250 ppm; for pest or weed control at 125 ppm: rate 125 ppm
In short: as §2

[8] = tested on: Lambsquarter (Chenopodium album); experiment: as above; format: in vivo; settings: Chenopodium album, post-emergence, 336 h, visual score after 2 weeks, read-out: Post-emergent % control CHEAL; for pest or weed control at 500 ppm: rate 500 ppm; for pest or weed control at 250 ppm: rate 250 ppm; for pest or weed control at 125 ppm: rate 125 ppm
In short: as §2

| SMILES | melting point [°C] | pest or weed control at 560 ppm [1] [%] | pest or weed control at 560 ppm [2] [%] | pest or weed control at 560 ppm [3] [%] | pest or weed control at 560 ppm [4] [%] | pest or weed control at 500 ppm ([5]; Table 1) [%] | pest or weed control at 500 ppm ([6]; Table 1) [%] | pest or weed control at 500 ppm ([7]; Table 1) [%] | pest or weed control at 500 ppm ([8]; Table 1) [%] | pest or weed control at 140 ppm [1] [%] | pest or weed control at 140 ppm [2] [%] | pest or weed control at 140 ppm [3] [%] | pest or weed control at 140 ppm [4] [%] | further results |
| --- | --- | --- | --- | --- | --- | --- | --- | --- | --- | --- | --- | --- | --- | --- |
| COC(=O)c1nc(-c2ccc(C)cc2)c(F)c(N)c1F [Compound 91, Methyl 4-amino-3,5-difluoro-6-(4-methylphenyl)pyridine-2-carboxylate] | 145 to 146 | 100 | 100 | 90 | 60 | 100 | 80 | 90 | 100 |  |  |  |  |  |
| COC(=O)c1nc(-c2ccc(Cl)cc2F)c(F)c(N)c1F [Compound 93, Methyl 4-amino-3,5-difluoro-6-(4-chloro-2-fluorophenyl)pyridine-2-carboxylate] | 182 to 183 | 30 | 100 | 100 | 50 | 100 | 80 | 90 | 95 |  |  |  |  |  |
| Cc1cccc(-c2cc(N)c(Cl)c(C(=O)O)n2)c1 [Compound 138, 4-Amino-3-chloro-6-(3-methylphenyl)pyridine-2-carboxylic acid] | 173 to 175 | 100 | 100 | 100 | 98 |  |  |  |  |  |  |  |  | pest or weed control at 250 ppm ([5]; Table 1): 100%; pest or weed control at 250 ppm ([6]; Table 1): 20%; pest or weed control at 250 ppm ([7]; Table 1): 50%; pest or weed control at 250 ppm ([8]; Table 1): 100% |
| COc1ccccc1-c1cc(N)c(Cl)c(C(=O)O)n1 [Compound 139, 4-Amino-3-chloro-6-(2-methoxyphenyl)pyridine-2-carboxylic acid] | 177 to 179 | 100 | 100 | 100 | 100 |  |  |  |  |  |  |  |  | pest or weed control at 250 ppm ([5]; Table 1): 100%; pest or weed control at 250 ppm ([6]; Table 1): 30%; pest or weed control at 250 ppm ([7]; Table 1): 70%; pest or weed control at 250 ppm ([8]; Table 1): 95% |
| COc1ccc(-c2cc(N)c(Cl)c(C(=O)O)n2)cc1 [Compound 141, 4-Amino-3-chloro-6-(4-methoxyphenyl)pyridine-2-carboxylic acid] | 192 | 60 | 98 | 100 | 70 |  |  |  |  |  |  |  |  | pest or weed control at 250 ppm ([5]; Table 1): 100%; pest or weed control at 250 ppm ([6]; Table 1): 10%; pest or weed control at 250 ppm ([7]; Table 1): 80%; pest or weed control at 250 ppm ([8]; Table 1): 100% |
| Nc1cc(-c2cccc(Cl)c2)nc(C(=O)O)c1Cl [Compound 143, 4-Amino-3-chloro-6-(3-chlorophenyl)pyridine-2-carboxylic acid] | 171 | 100 | 100 | 100 | 100 | 100 | 40 | 70 | 100 |  |  |  |  |  |

More lines, main results first:

| melting point [°C] | SMILES | pest or weed control at 560 ppm [1] [%] | pest or weed control at 560 ppm [2] [%] | pest or weed control at 560 ppm [3] [%] | pest or weed control at 560 ppm [4] [%] | pest or weed control at 500 ppm ([5]; Table 1) [%] | pest or weed control at 500 ppm ([6]; Table 1) [%] | pest or weed control at 500 ppm ([7]; Table 1) [%] | pest or weed control at 500 ppm ([8]; Table 1) [%] | pest or weed control at 140 ppm [1] [%] | pest or weed control at 140 ppm [2] [%] | pest or weed control at 140 ppm [3] [%] | pest or weed control at 140 ppm [4] [%] | further results |
| --- | --- | --- | --- | --- | --- | --- | --- | --- | --- | --- | --- | --- | --- | --- |
| 190 to 191 | Cc1cc(-c2cc(N)c(Cl)c(C(=O)O)n2)ccc1Cl [Compound 149, 4-Amino-3-chloro-6-(4-chloro-3-methylphenyl)pyridine-2-carboxylic acid] |  |  |  |  | 100 | 100 | 95 | 100 | 100 | 100 | 100 | 100 |  |
| 185 to 186 | Nc1cc(-c2ccc(Cl)c(Cl)c2)nc(C(=O)O)c1Cl [Compound 150, 4-Amino-3-chloro-6-(3,4-dichlorophenyl)pyridine-2-carboxylic acid] |  |  |  |  | 100 | 95 | 95 | 100 | 90 | 100 | 100 | 100 |  |
| 183 to 184 | Nc1cc(-c2ccc(F)c(Cl)c2)nc(C(=O)O)c1Cl [Compound 151, 4-Amino-3-chloro-6-(3-chloro-4-fluorophenyl)pyridine-2-carboxylic acid] |  |  |  |  | 100 | 85 | 100 | 100 | 100 | 100 | 100 | 100 | pest or weed control at 125 ppm ([5]; Table 2): 100%; pest or weed control at 125 ppm ([6]; Table 2): 90%; pest or weed control at 125 ppm ([7]; Table 2): 85%; pest or weed control at 125 ppm ([8]; Table 2): 100% |
| 175 to 176 | Nc1cc(-c2ccc(C(F)(F)F)cc2)nc(C(=O)O)c1Cl [Compound 152, 4-Amino-3-chloro-6-[4-(trifluoromethyl)phenyl]pyridine-2-carboxylic acid] |  |  |  |  |  |  |  |  | 100 | 95 | 100 | 100 | pest or weed control at 125 ppm ([5]; Table 1): 100%; pest or weed control at 125 ppm ([6]; Table 1): 95%; pest or weed control at 125 ppm ([7]; Table 1): 90%; pest or weed control at 125 ppm ([8]; Table 1): 100% |
| 165 | Nc1cc(-c2ccc(Cl)cc2)nc(C(=O)O)c1Cl [Compound 154, 4-Amino-3-chloro-6-(4-chlorophenyl)pyridine-2-carboxylic acid] |  |  |  |  | 100 | 100 | 100 | 100 | 100 | 100 | 100 | 100 | pest or weed control at 125 ppm ([5]; Table 2): 100%; pest or weed control at 125 ppm ([6]; Table 2): 90%; pest or weed control at 125 ppm ([7]; Table 2): 70%; pest or weed control at 125 ppm ([8]; Table 2): 100% |
